# Test results: patent US5852011A, “Benzimidazole derivatives” (Mitsui Chemicals, Inc., priority 1994, dated 1998)
# Structures can show the parent of a compound that is named as a salt.
# Key:
# [1] = test system: Colon 26 mouse colon cancer cells; assay: In vivo antitumor activity, Colon 26 subcutaneously transplanted to female CDF1 mice (Test 4); details: caudal vein, tumor weight on day 15
# Procedure: Prepared was a 1×10^7 cells/ml suspension of Colon 26 mouse colon cancer cells in HBSS (Hanks' Balanced Salt Solution). A 0.1 ml portion of the cell suspension was subcutaneously transplanted to a lateroabdominal part of each female CDF1 mouse. After the body weight of the mouse was measured on the following day of the transplantation of the tumor, a solution of a compound (5% glucose solution containing 5% of "Tween 80") was administered into the caudal vein of the mouse. On day 15, a tumor was excised and its weight was measured.
# The percentage of the average tumor weight of each experiment group as calculated by supposing that the average tumor weight of the control group not administered with any drug was 100% was calculated as a T/C value.
# Corresponding to each compound number, its T/C value is shown. The number in parentheses indicates the concentration of the drug when the T/C value was indicated.
# [2] = test system: mouse B16 melanoma cells; assay: In vitro inhibition of proliferation of tumored cells, mouse B16 melanoma (Test 2); assay type: cell-based; details: 3 days in 5% CO2 at 37° C., 96-well plate
# Procedure: A description will next be made of antitumor activities of these compounds. Their antitumor activities were determined by measuring their in vitro inhibition of proliferation of tumored cells. Namely, mouse B16 melanoma cells were spread over a 96-well culture plate. One day later, each drug was applied. The melanoma cells were then incubated for 3 days in 5% CO2 at 37° C. Following the method reported in Cancer Res., 48, 589-601(1988), the concentration of the drug required to induce 50% inhibition on the proliferation was determined. As a comparative example, the results obtained from the application of distamycin are also shown.
# [3] = test system: P388 leukemia cells; assay: In vivo antitumor activity, P388 leukemia intraperitoneally transplanted to female CDF1 mice (Test 3); design: species or system mouse; ILS: unit not given here; details: intraperitoneal, one, five and nine days after transplantation; for Survived After 8 weeks/Tested Animals: concentration 3 (in parentheses)
# Procedure: In vivo antitumor activities of these compounds were also studied. P388 leukemia cells (10^6 cells/mouse) were intraperitoneally transplanted to female CDF1 mice. One, five and nine days later, each compound was intraperitoneally administered (at 1, 3 or 10 mg/kg) to the mice. As a blank test, 5% glucose was intraperitoneally administered at 10 ml/kg to mice. Based on the group of the mice in the blank test as a control group, the effects of the individual drugs are shown in terms of ILS. The term "ILS" is represented by the following formula: [formula]
# When test animals survived 8 weeks after the administration, the number of those survived was recorded without calculation of ILS.
Compound,50% Inhibition [2] [µg/mL],further results
"COc1cccc2c1C(=O)c1c(O)c3c(c(O)c1C2=O)C[C@@](O)(C(=O)CO)C[C@@H]3O[C@H]1C[C@H](N)[C@H](O)[C@H](C)O1 [Adriamycin, adriamycin, reference compound]",–,T/C ([1]; 20 mg/Kg): 40%
"Cn1cc(NC(=O)Cc2ccc(N(CCCl)CCCl)cc2)cc1-c1nc2cc(C(=O)NCCC(=N)N)ccc2[nH]1 [Compound 2, 1H-2-[4-[2-[4-[N,N-Bis(2-chloroethyl)amino]phenyl]acetylamino]-1-methylpyrrol-2-yl]benzimidazole-5-[N-(2-amidinoethyl)]carboxamide hydrochloride]",0.25,ILS ([3]; 1 mg/kg): 59; Survived After 8 weeks/Tested Animals [3]: 2/5
"COc1cc(C(=O)Nc2cc(-c3nc4cc(C(=O)NCCC(=N)N)ccc4[nH]3)n(C)c2)ccc1N(CCCl)CCCl [Compound 6, 1H-2-[4-[3-Methoxy-4-[N,N-bis(2-chloroethyl)amino]benzoylamino]-1-methylpyrrol-2-yl]benzimidazole-5-[N-(2-amidinoethyl)]carboxamide hydrochloride]",0.02,ILS ([3]; 1 mg/kg): 94
"Cn1cc(NC(=O)COc2ccc(N(CCCl)CCCl)cc2)cc1-c1nc2cc(C(=O)NCCC(=N)N)ccc2[nH]1 [Compound 13, 1H-2-[4-[4-[N,N-Bis(2-chloroethyl)amino]phenoxyacetylamino]-1-methylpyrrol-2-yl]benzimidazole-5-[N-(2-amidinoethyl)]carboxamide hydrochloride]",0.01,ILS ([3]; 1 mg/kg): 123; Survived After 8 weeks/Tested Animals [3]: 3/5
"Cn1cc(NC(=O)c2ccccc2N(CCCl)CCCl)cc1-c1nc2cc(C(=O)NCCC(=N)N)ccc2[nH]1 [Compound 305, 1H-2-[4-[2-[N,N-Bis(2-chloroethyl)amino]benzoylamino]-1-methylpyrrol-2-yl)benzimidazole-5-[N-(2-amidinoethyl)]carboxamide hydrochloride]",4.2,ILS ([3]; 10 mg/kg): 22
"Cn1cc(NC(=O)c2cc(N(CCCl)CCCl)cc(N(CCCl)CCCl)c2)cc1-c1nc2cc(C(=O)NCCC(=N)N)ccc2[nH]1 [Compound 310, 1H-2-[4-[3,5-Bis[N,N-bis(2-chloroethyl)amino]benzoylamino]-1-methylpyrrol-2-yl]benzimidazole-5-[N-(2-amidinoethyl)]carboxamide hydrochloride]",0.76,ILS ([3]; 1 mg/kg): 88
"Cn1cc(NC(=O)CNC(=N)N)cc1-c1nc2cc(C(=O)NCCc3ccc(N(CCCl)CCCl)cc3)ccc2[nH]1 [Compound 1003, 1H-2-[4-(2-Guanidinoacetylamino)-1-methylpyrrol-2-yl]benzimidazole-5-[N-[2-[4-[N,N-bis(2-chloroethyl)amino]phenyl]ethyl]]carboxamide hydrochloride]",0.018,T/C ([1]; 0.3 mg/Kg): 41%
"Cc1cc(NC(=O)c2ccc3[nH]c(-c4cc(NC(=O)CNC(=N)N)cn4C)nc3c2)ccc1N(CCCl)CCCl [Compound 1005, 1H-2-[1-Methyl-4-(2-guanidinoacetylamino)pyrrol-2-yl]benzimidazole-5-[N-[3-methyl-4-[N,N-bis(2-chloroethyl)amino]phenyl]]carboxamide dihydrochloride]",0.65,T/C ([1]; 15 mg/Kg): 20%
"COc1cc(NC(=O)c2ccc3[nH]c(-c4cc(NC(=O)CNC(=N)N)cn4C)nc3c2)ccc1N(CCCl)CCCl [Compound 1009, 1H-2-[1-Methyl-4-(guanidinoacetylamino)pyrrol-2-yl]benzimidazole-5-[N-[3-methoxy-4-[N,N-bis(2-chloroethyl)amino]phenyl]]carboxamide dihydrochloride]",2.31,T/C ([1]; 10 mg/Kg): 29%
"Cn1cc(NC(=O)CNC(=N)N)cc1-c1nc2cc(C(=O)Nc3ccc(N(CCCl)CCCl)c(C#N)c3)ccc2[nH]1 [Compound 1013, 1H-2-[1-Methyl-4-(guanidinoacetylamino)pyrrol-2-yl]benzimidazole-5-[N-[3-cyano-4-[N,N-bis(2-chloroethyl)amino]phenyl]]carboxamide dihydrochloride]",0.34,T/C ([1]; 3 mg/Kg): 58%
"Cn1cc(NC(=O)CNC(=N)N)cc1-c1nc2cc(C(=O)Nc3ccc(N(CCCl)CCCl)c(Cl)c3)ccc2[nH]1 [Compound 1017, 1H-2-[1-Methyl-4-(guanidinoacetylamino)pyrrol-2-yl]benzimidazole-5-[N-[3-chloro-4-[N,N-bis(2-chloroethyl)amino]phenyl]]carboxamide dihydrochloride]",0.78,T/C ([1]; 3 mg/Kg): 30%
"CSCCC(=O)Nc1cc(-c2nc3cc(C(=O)Nc4ccc(N(CCCl)CCCl)c(F)c4)ccc3[nH]2)n(C)c1 [Compound 1528, 1H-2-[1-Methyl-4-[3-(methylthio)propionylamino]pyrrol-2-yl]benzimidazole-5-[N-[3-fluoro-4-[N,N-bis(2-chloroethyl)amino]phenyl]]carboxamide]",0.22,–
"Cn1cc(NC(=O)N2CCOCC2)cc1-c1nc2cc(C(=O)Nc3ccc(N(CCCl)CCCl)cc3)ccc2[nH]1 [Compound 1536, 1H-2-[1-Methyl-4-(4-morpholinecarbonyl)aminopyrrol-2-yl]benzimidazole-5-[N-[4-[N,N-bis(2-chloroethyl)amino]phenyl]]carboxamide]",0.53,–
"Cn1cc(NC(=O)CN2CCN(Cc3ccccc3)CC2)cc1-c1nc2cc(C(=O)Nc3ccc(N(CCCl)CCCl)cc3)ccc2[nH]1 [Compound 1585, 1H-2-[1-Methyl-4-[(4-benzylpiperazinyl)acetylamino]pyrrol-2-yl]benzimidazole-5-[N-[4-[N,N-bis(2-chloroethyl)amino]phenyl]]carboxamide]",0.1,–
"Cn1cc(NC(=O)CCn2ccnc2)cc1-c1nc2cc(C(=O)Nc3ccc(N(CCCl)CCCl)cc3)ccc2[nH]1 [Compound 1589, 1H-2-[1-Methyl-4-[[3-(imidazol-1-yl)propionyl]amino]pyrrol-2-yl]benzimidazole-5-[N-[4-[N,N-bis(2-chloroethyl)]amino]phenyl]carboxamide]",0.41,–
"Cn1cc(NC(=O)c2ncc[nH]2)cc1-c1nc2cc(C(=O)Nc3ccc(N(CCCl)CCCl)cc3)ccc2[nH]1 [Compound 1590, 1H-2-[1-Methyl-4-[2-imidazolylcarboxamido)-pyrrol-2-yl]benzimidazole-5-[N-[4-[N,N-bis(2-chloroethyl)amino]phenyl]]carboxamide]",0.53,–
"Cn1cc(NC(=O)CNC(=N)N)cc1-c1nc2cc(C(=O)NCCCC(=O)Nc3ccc(N(CCCl)CCCl)cc3)ccc2[nH]1 [Compound 1592, 1H-2-[4-(Guanidinoacetyl)amino-1-methylpyrrol-2-yl]benzimidazole-5-[N-[3-[N-[4-[N,N-bis(2-chloroethyl)amino]phenyl]carboxamido]propyl]]carboxamide hydrochloride]",0.61,–
"N=C(N)NCC(=O)Nc1cc(-c2nc3cc(C(=O)Nc4ccc(N(CCCl)CCCl)cc4)ccc3[nH]2)cs1 [Compound 1617, 1H-2-[5-(Guanidinoacetyl)aminothiophen-3-yl]benzimidazole-5-[N-[4-[N,N-bis(2-chloroethyl)amino]phenyl]]carboxamide dihydrochloride]",0.12,–
"Cn1cc(NC(=O)c2ccc(N(CCCl)CCCl)cc2)cc1-c1nc2cc(C(=O)Nc3ccc(N(CCCl)CCCl)cc3)ccc2[nH]1 [Compound 2001, 1H-2-[4-[4-[N,N-Bis(2-chloroethyl)amino]benzoylamino]-1-methylpyrrol-2-yl]benzimidazole-5-[N-[4-[N,N-bis(2-chloroethyl)amino]phenyl]]carboxamide]",0.005,ILS ([3]; 10 mg/kg): 47
"CCN(CCCl)c1ccc(NC(=O)c2ccc3[nH]c(-c4cc(NC(=O)c5ccc(N(CC)CCCl)cc5)cn4C)nc3c2)cc1.Cl [Compound 2089, 1H-2-[1-Methyl-4-[4-[N-ethyl,N-(2-chloroethyl)amino]benzoylamino]pyrrol-2-yl]benzimidazole-5-[N-[4-[N-ethyl,N-(2-chloroethyl)amino]phenyl]]carboxamidehydrochloride]",0.0057,–
